Results reported in US20100113332A1, “METHOD OF TREATING AN INFLAMMATORY DISEASE BY DOUBLE STRANDED RIBONUCLEIC ACID” (NASTECH PHARMACEUTICAL COMPANY INC., priority 2004, published 2010).

Columns and labels:
[1] = tested on: TNF-α mRNA; assay: TNF-α knockdown in human monocytes (branch DNA);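 note: LPS-activated human CD14+ monocytes, TNF-α mRNA read by branched DNA assay and normalized to cypB mRNA, knockdown compared with random-sequence Qneg siRNA as negative control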
Source text: For mRNA measurement, branch DNA technology from Genospectra (CA) was used according to manufacturer's specification. Human monocytes (CD14+) treated with LPS induce TNF-α-specific mRNA within approximately 2 hrs, followed by peak levels of TNF-α protein 2 hrs later. siRNAs were screened for knockdown activity by transfecting monocytes with siRNA candidate sequences using Lipofectamine 2000, treating infected cells with LPS, and measuring TNF-α mRNA levels approximately 16 hrs later.
To quantitate mRNA level in the cells, both house keeping gene (cypB) and target gene (TNF-α) mRNA were measured, and the reading for TNF-α was normalized with cypB to obtain relative luminescence unit.
Qneg represents a random siRNA sequence and functions as the negative control in these experiments.

[2] = tested on: mouse tail fibroblast (MTF) cells; format: cell-based; details: peptide/siRNA complex
Protocol: (§2) Cells were plated the day before so that they were ˜50-80% confluent at time of transfection. For complexes, siRNA and peptide were diluted in Opti-MEM® media (Invitrogen), then mixed and allowed to complex 5-10 minutes before adding to cells washed with PBS. Final concentration of siRNA was 500 nM at each peptide concentration (2-50 μM). The conjugate, also diluted in Opti-MEM® media, was added to cells at final concentrations ranging from 62.5 nM to 500 nM. At 500 nM concentration, we also combined with 20% FBS just before adding to washed cells. Cells were transfected for 3 hours at 37° C., 5% CO2. Cells were washed with PBS, treated with trypsin and then analyzed by flow cytometry. siRNA uptake was measured by intensity of Cy5 fluorescence and cellular viability assessed by addition of propidium iodide.
The materials and methods used for the experiments performed in 9L/LacZ cells and mouse fibroblast cells are generally the same as described above, except that for the murine experiments, 9L/LacZ cells were replaced with mouse tail fibroblasts.

[3] = tested on: 9L/LacZ cells; assay: siRNA uptake by flow cytometry in 9L/LacZ cells; format: cell-based, rat; details: peptide/siRNA complex
Protocol: as §2
Uptake was measured using 9L/lacZ cells transfected as described in Example 2. Cells were washed with PBS, treated with trypsin and then analyzed by flow cytometry. siRNA uptake was measured by intensity of FAM fluorescence and cellular viability assessed by addition of propidium iodide.

[4] = tested on: interferon response markers (IL-1β, INF-α, IL-6, IL-8, IL-12, MIP-1α, IFN-γ, TNF-α); assay: interferon responsiveness, marker protein ELISA; format: cell-based; details: for Relative protein expression level of IFN-γ / Relative protein expression level of IL-12 / Relative protein expression level of INF-α: Lipofectamine transfection; for interferon response (ELISA): regardless of transfection reagent
Protocol: (§1) Interferon responsiveness was assayed by ELISA (protein) and bDNA (mRNA levels).

[5] = tested on: human TNF-α transgenic mice; assay: RA paw score in human TNF-α transgenic mice; details: for RA progression by paw score at week 8 (FIG. 4): siRNA delivered with PN73
Protocol: For human TNF-α animal disease models, two transgenic models were used. The tg197 mice were acquired from Pasteur Hellenic Institute (Athens, Greece), and the B6.SJL-Tg(TNF) N21 mice were purchased from Taconic, Inc. (Germantown, N.Y.). The genotypes of both human TNF-α transgenic mouse models were performed by suppliers. […] All treatments were by tail vein injection twice a week. […] A similar dose regimen was used for B6.SJL-Tg(TNF) N21 mice. Clinical scores were based on a previously described scoring system (2, 3) as follows: 0 (normal), 1 (edema or distortion of paw or ankle joints), 2 (distortion of paw and ankle joints), or 3 (ankylosis of wrist or ankle joints). The sum of all four paws was scored twice a week with a maximum score of 12 per mouse.
For Hellenic transgenic mice, RA scores were determined (blinded to treatment) using the following criteria: 0, normal; 1, edema or distortion of paw or ankle joints; 2 distortion of paw and ankle joints; 3, ankylosis of wrist or ankle joints.
Human NF-α expressing mice were purchase from the Hellenic Pasture Institute, Greece) at 5 weeks old. […] During the injection periods, plasma samples were collected for ELISA testing (R&D Systems, Cat#SSTA00C), and paw scores were taken twice a week as an accepted index of RA disease progression and therapeutic efficacy (Table 19).
Due to the difference in the starting point (some animals present with scores at earlier points), the scores have been adjusted to 0 for all animals in the experiments. Each paw is given a score between 0 and 3, with the highest score of 12, according to the following scoring index. • 0: Normal • 1: edema or distortion of paw or ankle joints • 2: distortion of paw and ankle joints • 3: ankylosis of wrist or ankle joints.

[6] = tested on: TNF-α protein; assay: TNF-α protein ELISA in human monocytes; format: cell-based; details: siRNA screen with Lipofectamine 2000, LPS-activated monocytes
Protocol: Human monocytes (CD14+) treated with LPS induce TNF-α-specific mRNA within approximately 2 hrs, followed by peak levels of TNF-α protein 2 hrs later. siRNAs were screened for knockdown activity by transfecting monocytes with siRNA candidate sequences using Lipofectamine 2000, treating infected cells with LPS, and measuring TNF-α mRNA levels approximately 16 hrs later.
To quantitate mRNA level in the cells, both house keeping gene (cypB) and target gene (TNF-α) mRNA were measured, and the reading for TNF-α was normalized with cypB to obtain relative luminescence unit. To quantify protein level, the TNF-α ELISA from BD Bioscience was used according to manufacturer's specification.

[7] = tested on: 9L/LacZ cells; assay: beta-galactosidase knockdown assay of siRNA transfection efficiency; format: cell-based, rat; details: Histone H2B plus siRNA
Protocol: For H3, H4 and H2b, a series of experiments was performed to complex these polynucleotide delivery-enhancing polypeptides with siRNA in different ratios. Generally this was initiated with a 1:0.01 to 1:50 of siRNA/histone ratio. To each well in a 96-well microtiter plate, 40 pm siRNA was added. Each well contained beta-gal cells at 50% confluency.
Transfections were performed with either regular siRNA or siRNA complexed with one of the above-identified histone proteins on 9L/beta-gal cells. The siRNA was designed to specifically knock down beta-galactosidase mRNA, and activities are expressed as percentage of beta-gal activities from control (control cells were transfected using lipofectamine without the polynucleotide delivery-enhancing polypeptide).
For beta-galactosidase assays, 9L/LacZ cells, a cell line constitutively expressing beta-galactosidase, were used. 9L/LacZ cells are rat gliosarcoma fibroblast cells that constitutively express LacZ and were obtained from ATCC (#CRL-2200). […]
The transfection efficiency inversely correlates with the amount of beta-galactosidase activity measured from the cell lysate. Upon transfection, a measured decrease in beta-galactosidase activity indicates a successful transfection. Thus, in the absence of transfection, the measured beta-galactosidase activity is 100% and the transfection efficiency is 0%. […]

[8] = tested on: IL-1β mRNA; assay: interferon responsiveness, IL-1β mRNA (bDNA); format: cell-based; details: siRNA complexed with lipofectamine; 100 nM or 200 nM for TNF-α9
Protocol: as §1

[9] = tested on: human TNF-α; assay: plasma human TNF-α by ELISA in human TNF-α transgenic mice; format: in vivo, mouse; details: average of the mice
Protocol: For determination of TNF-α level, For the analysis of experiments involving transgenic mice, plasma samples were separated from whole blood collected by orbital bleeding. Plasma levels of hTNF-α were determined by ELISA at a 1:2 dilution according to the manufacturer's instructions (R&D systems, Minneapolis, Minn.).
For Taconic mice, TNF-α levels in plasma were determined by ELISA (R&D systems, Minneapolis, Minn.) and treatment schedules were same as Hellenic transgenic hTNF-αtransgenic mice.

[10] = siRNA 4 nM complexed with 1.6 uM PN73
[11] = siRNA 4 nM complexed with 1.6 uM PN509
[12] = siRNA 20 nM complexed with 0.5 uM PN250
[13] = siRNA 20 nM complexed with 0.75 uM PN250
[14] = siRNA 20 nM complexed with 1 uM PN250

AACCAAUGCCCUCCUGGCCAA (siRNA; delivered as complex with delivery-enhancing peptide, further chemistry not given here) [LC14]
KD (%) TNF-α [1, 10]: 50.76% | KD (%) TNF-α [1, 11]: 42.78%

AACCCAUGUGCUCCUCACCCA (siRNA; delivered as complex with delivery-enhancing peptide, further chemistry not given here) [LC8]
KD (%) TNF-α [1, 10]: 41.24% | KD (%) TNF-α [1, 11]: 47.35%

AACCUCCUCUCUGCCAUCAAG (siRNA; delivered as complex with delivery-enhancing peptide, further chemistry not given here) [LC3]
KD (%) TNF-α [1, 10]: 23.17% | KD (%) TNF-α [1, 11]: 30.14%

AACUGAAAGCAUGAUCCGGGA (siRNA; delivered as complex with delivery-enhancing peptide, further chemistry not given here) [LC4]
KD (%) TNF-α [1, 10]: 26.67% | KD (%) TNF-α [1, 11]: 22.71%

AAGCCUGUAGCCCAUGUUGUA (siRNA; delivered as complex with delivery-enhancing peptide, further chemistry not given here) [LC19]
KD (%) TNF-α [1, 10]: 61.83% | KD (%) TNF-α [1, 11]: 56.38%

AAGCUCCAGUGGCUGAACCGC (siRNA; delivered as complex with delivery-enhancing peptide, further chemistry not given here) [LC9]
KD (%) TNF-α [1, 10]: 40.32% | KD (%) TNF-α [1, 11]: 58.20%

AAGGGUGACCGACUCAGCGcU (siRNA; as printed in the source, key not given here) [LC6]
KD (%) TNF-α [1, 10]: 44.10% | KD (%) TNF-α [1, 11]: 50.19%

AAUCAGCCGCAUCGCCGUCUC (siRNA; delivered as complex with delivery-enhancing peptide, further chemistry not given here) [LC7]
KD (%) TNF-α [1, 10]: 42.76% | KD (%) TNF-α [1, 11]: 56.11%

AAUCGGCCCGACUAUCUCGACUU (chemistry not given here) [LC1]
KD (%) TNF-α [1, 10]: 20.08% | KD (%) TNF-α [1, 11]: 31.13%

AAUCUCGACUUUGCCGAGUCU (chemistry not given here) [LC5]
KD (%) TNF-α [1, 10]: 46.78% | KD (%) TNF-α [1, 11]: 34.93%

AAUGGCGUGGAGCUGAGAGAU (siRNA; delivered as complex with delivery-enhancing peptide, further chemistry not given here) [LC2]
KD (%) TNF-α [1, 10]: 19.06% | KD (%) TNF-α [1, 11]: 37.04%

AAVALLPAVLLALLAPRKKRRQRRRPPQC [PN27]
Percent Uptake Primary MTF Cells [2]: 61% | Percent Uptake LacZ Cells [3]: 86%

C(YGRKKRRQRRRG)2 [PN204]
Percent Uptake LacZ Cells [3]: 83%

CCAGGGACCUCUCUCUAAU (siRNA; delivered as complex with delivery-enhancing peptide, further chemistry not given here) [TNF-4]
KD (%) TNF-α [1, 12]: 0.90% | KD (%) TNF-α [1, 13]: 14.39% | KD (%) TNF-α [1, 14]: 26.47%

CCGACUCAGCGCUGAGAUCAA (siRNA; chemistry not fully specified) [LC17]
Relative protein expression level of IFN-γ [4]: Background | Relative protein expression level of IL-12 [4]: Background | Relative protein expression level of INF-α [4]: Background | interferon response (ELISA) [4]: no interferon response | Relative effect of siRNA, paw score ([5]; group TNF #6): Overall low paw score. YC12 | KD (%) TNF-α [1, 10]: 50.78% | KD (%) TNF-α [1, 11]: 48.94%

CCUCAGCCUCUUCUCCUUCCUGA (chemistry not given here) [LC12]
KD (%) TNF-α [1, 10]: 40.61% | KD (%) TNF-α [1, 11]: 17.03%

CUGAUUAAGUUGUCUAAACAA (siRNA; delivered as complex with delivery-enhancing peptide, further chemistry not given here) [LC16]
KD (%) TNF-α [1, 10]: 55.91% | KD (%) TNF-α [1, 11]: 40.06%

CUUGUGAUUAUUUAUUAUUUA (siRNA; delivered as complex with delivery-enhancing peptide, further chemistry not given here) [LC18]
KD (%) TNF-α [1, 10]: 63.44% | KD (%) TNF-α [1, 11]: 58.13%

GCAGGUCUACUUUGGGAUC (siRNA; delivered as complex with delivery-enhancing peptide, further chemistry not given here) [YC18]
KD (%) TNF-α [1, 12]: 20.72% | KD (%) TNF-α [1, 13]: 17.82% | KD (%) TNF-α [1, 14]: 24.66%

GCCCGACUAUCUCGACUUU (siRNA; delivered as complex with delivery-enhancing peptide, further chemistry not given here) [YC17]
KD (%) TNF-α [1, 12]: 17.30% | KD (%) TNF-α [1, 13]: 29.82% | KD (%) TNF-α [1, 14]: 24.68%

GCCUGUACCUCAUCUACUC (siRNA; chemistry not fully specified) [YC12]
Relative effect of siRNA, paw score ([5]; group TNF #6): Overall low paw score. YC12 | KD (%) TNF-α [1, 10]: 43.60% | KD (%) TNF-α [1, 11]: 64.37% | KD (%) TNF-α [1, 12]: 17.06% | KD (%) TNF-α [1, 13]: 21.66% | KD (%) TNF-α [1, 14]: 15.91%

GCCUGUAGCCCAUGUUGUA (chemistry not given here) [TNF-α-2]
RA progression by paw score at week 8 (FIG. 4) [5]: delayed RA progression

GCGUGGAGCUGAGAGAUAA (chemistry not given here) [TNF-α-1]
reduction in TNF-α protein level [6]: 75% | TNF-α mRNA knockdown ([1]; siRNA screen with Lipofectamine 2000, LPS-activated monocytes): 50%

GCGUGGAGCUGAGAGAUAA (siRNA; delivered as complex with delivery-enhancing peptide, further chemistry not given here) [YC11]
KD (%) TNF-α [1, 12]: 13.70% | KD (%) TNF-α [1, 13]: 21.09% | KD (%) TNF-α [1, 14]: 33.10%

Histone H2B
measured beta-galactosidase activity [7]: 37.97%

NH2-LLETLLKPFQCRICMRNFSTRQARRNHRRRHRR-amide (H-LLETLLKPFQCRICMRNFSTRQARRNHRRRHRR-NH2; cysteine pairing not given here) [PN202]
Percent Uptake LacZ Cells [3]: 71%

NH2-RKKRRQRRRPPQCAAVALLPAVLLALLAP-amide (H-RKKRRQRRRPPQCAAVALLPAVLLALLAP-NH2) [PN28]
Percent Uptake Primary MTF Cells [2]: 81% | Percent Uptake LacZ Cells [3]: 79%

UAGCCCAUGUUGUAGCAAA (siRNA; delivered with peptide PN73, further chemistry not given here) [TNF-α9]
Relative protein expression level of IFN-γ [4]: Background | Relative protein expression level of IL-12 [4]: Background | Relative protein expression level of INF-α [4]: Background | IL-1β, IL-6 and MIP-1α protein expression levels ([4]; transfection with lipofectamine): increase | Relative effect of siRNA, effectiveness relative to Ramicade by week 8 ([5]; group TNF #7): LC20 and TNF-α9 are more | RA progression by paw score at week 8 (FIG. 4) [5]: delayed RA progression | IL-1β mRNA levels [8]: significant increase

UAGGGUCGGAACCCAAGCUUA [LC20]
Relative protein expression level of IFN-γ [4]: Background | Relative protein expression level of IL-12 [4]: Background | Relative protein expression level of INF-α [4]: Background | interferon response (ELISA) [4]: no interferon response | delay in RA progression relative to lower doses ([5]; 2 mg/kg LC20, PN73 1:5): greatest relative observed delay in RA progression | Relative effect of siRNA, effectiveness relative to Ramicade ([5]; group TNF #1 (LC20, Ramicade, PBS)): LC20 is as effective as | Relative effect of siRNA, paw score ([5]; group TNF #4): Overall low paw score | Relative effect of siRNA, paw score ([5]; group TNF #6): Overall low paw score. YC12 | Relative effect of siRNA, effectiveness relative to Ramicade by week 8 ([5]; group TNF #7): LC20 and TNF-α9 are more | Relative effect of siRNA, effectiveness relative to Ramicade by week 11 ([5]; group TNF #7): week 8; LC20 is equally | RA progression by paw score at week 8 (FIG. 4) [5]: delayed RA progression | TNF-α knockdown activity (FIG. 6-C) ([1]; absence of PN73, 0-2.5 nM): little knockdown activity | KD (%) TNF-α [1, 10]: 42.68% | KD (%) TNF-α [1, 11]: 71.12% | KD (%) TNF-α [1, 12]: −3.80% | KD (%) TNF-α [1, 13]: 10.72% | KD (%) TNF-α [1, 14]: 26.53% | decrease in TNF-α gene expression relative to Qneg control (FIG. 6-B) ([1]; siRNA complexed with PN73 1:1, 0-2.5 nM): ~30%

infliximab [Ramicade]
RA score (paw and joint inflammation) ([5]; twice weekly from age 6 weeks, effect beginning at age 7 weeks): RA score stabilization | Quantity of TNF-α protein in blood plasma by ELISA ([9]; age 7 weeks): 102.24 pg/mL | Quantity of TNF-α protein in blood plasma by ELISA ([9]; age 8 weeks): 39.27 pg/mL | Quantity of TNF-α protein in blood plasma by ELISA ([9]; age 9 weeks): 25.80 pg/mL
